Article PMC12503911, “Cytotoxicity of Atropisomeric [1,1′‐Binaphthalene]‐2,2′‐Diamines (BINAM) and Analogs in Human Cancer Cells: Enantioselectivity, Structure–Activity Relationships, and Mechanism” (Chemmedchem, 2025)
Read-outs that look alike come from different tables or passages of the source.

Columns and labels:
Assay in all cases: biochemical
Set-up in all cases: 33PanQinase radiometric kinase activity assay, residual activity in % of control, contract lab Reaction Biology
Conditions in all cases: mean of intraexperimental duplicates, n = 1
CDK1/CycB1 = CDK1/CycB1 (Homo sapiens, UniProt P06493)
Description: (§1) Kinase Screening was performed at Reaction Biology (Freiburg, Germany) by using the ^33PanQinase Assay.^[ [90] ^] Based on this knowledge, we commissioned a kinase screening by the firm Reaction Biology, targeting those kinases whose inhibition has shown an indirect effect on microtubules. In our selection, we included additional kinases that are known to be involved in centrosome amplification (PLK4^[ [82] ^]), centrosome clustering (CDK1/2,^[ [83] ^] PLK1^[ [84] ^]), spindle multipolarity (SRC^[ [85] ^]), microtubule dynamics (AKT1^[ [86] ^]), and LIMK1/2 activation (ROCK1^[ [87] ^]) or are crucial for the mitosis (BUB1B, NEK2/9, WEE1^[ [88] ^]). Nonetheless, 1(R) and 1(S) at 10 µM had almost no inhibitory effects on any of the chosen kinases (Table 4 ). Only Aurora A (mean residual activity for 1(R): 86%, 1(S): 98%) and ASK1 (mean residual activity for 1(R): 90%, 1(S): 117%) were slightly enantioselectively impacted. However, we theorize that those marginal inhibitions are not explanatory for the antiproliferative and morphological effects of 1(R) on cancer cells.

NEK9 = biological target: T1, NEK9 (Homo sapiens, UniProt Q8TD19)
T1 sequence (Q8TD19 1-979): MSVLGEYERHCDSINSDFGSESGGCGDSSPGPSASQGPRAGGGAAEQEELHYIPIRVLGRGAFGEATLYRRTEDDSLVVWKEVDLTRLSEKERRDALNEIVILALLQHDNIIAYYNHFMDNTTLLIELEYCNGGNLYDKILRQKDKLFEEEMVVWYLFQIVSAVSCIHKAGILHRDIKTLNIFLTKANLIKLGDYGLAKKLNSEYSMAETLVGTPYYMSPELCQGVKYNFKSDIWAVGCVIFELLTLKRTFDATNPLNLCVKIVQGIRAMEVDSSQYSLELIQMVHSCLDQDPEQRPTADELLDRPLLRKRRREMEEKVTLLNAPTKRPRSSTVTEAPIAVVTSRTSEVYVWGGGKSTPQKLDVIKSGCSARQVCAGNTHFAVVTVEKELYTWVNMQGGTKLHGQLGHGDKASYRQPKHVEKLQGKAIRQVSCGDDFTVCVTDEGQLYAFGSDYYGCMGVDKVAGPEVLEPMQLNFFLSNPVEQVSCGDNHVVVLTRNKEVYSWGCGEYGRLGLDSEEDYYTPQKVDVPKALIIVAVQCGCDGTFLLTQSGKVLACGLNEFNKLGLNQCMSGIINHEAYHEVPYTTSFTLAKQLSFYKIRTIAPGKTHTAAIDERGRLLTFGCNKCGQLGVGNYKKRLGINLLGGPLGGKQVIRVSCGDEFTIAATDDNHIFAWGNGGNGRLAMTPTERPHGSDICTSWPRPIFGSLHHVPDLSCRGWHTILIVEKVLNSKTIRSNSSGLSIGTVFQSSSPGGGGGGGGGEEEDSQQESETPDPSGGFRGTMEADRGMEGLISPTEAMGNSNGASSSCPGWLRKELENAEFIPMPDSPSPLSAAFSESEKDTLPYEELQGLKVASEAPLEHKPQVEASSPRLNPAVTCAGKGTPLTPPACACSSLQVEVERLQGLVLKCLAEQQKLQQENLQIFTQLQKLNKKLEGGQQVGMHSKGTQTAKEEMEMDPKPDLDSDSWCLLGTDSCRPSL
Description: as §1

LIMK2 = LIMK2 (Homo sapiens, UniProt P53671)
Description: as §1

Mps1/TTK = biological target: T2, Mps1/TTK (Homo sapiens, UniProt P33981)
T2 sequence (P33981 1-857): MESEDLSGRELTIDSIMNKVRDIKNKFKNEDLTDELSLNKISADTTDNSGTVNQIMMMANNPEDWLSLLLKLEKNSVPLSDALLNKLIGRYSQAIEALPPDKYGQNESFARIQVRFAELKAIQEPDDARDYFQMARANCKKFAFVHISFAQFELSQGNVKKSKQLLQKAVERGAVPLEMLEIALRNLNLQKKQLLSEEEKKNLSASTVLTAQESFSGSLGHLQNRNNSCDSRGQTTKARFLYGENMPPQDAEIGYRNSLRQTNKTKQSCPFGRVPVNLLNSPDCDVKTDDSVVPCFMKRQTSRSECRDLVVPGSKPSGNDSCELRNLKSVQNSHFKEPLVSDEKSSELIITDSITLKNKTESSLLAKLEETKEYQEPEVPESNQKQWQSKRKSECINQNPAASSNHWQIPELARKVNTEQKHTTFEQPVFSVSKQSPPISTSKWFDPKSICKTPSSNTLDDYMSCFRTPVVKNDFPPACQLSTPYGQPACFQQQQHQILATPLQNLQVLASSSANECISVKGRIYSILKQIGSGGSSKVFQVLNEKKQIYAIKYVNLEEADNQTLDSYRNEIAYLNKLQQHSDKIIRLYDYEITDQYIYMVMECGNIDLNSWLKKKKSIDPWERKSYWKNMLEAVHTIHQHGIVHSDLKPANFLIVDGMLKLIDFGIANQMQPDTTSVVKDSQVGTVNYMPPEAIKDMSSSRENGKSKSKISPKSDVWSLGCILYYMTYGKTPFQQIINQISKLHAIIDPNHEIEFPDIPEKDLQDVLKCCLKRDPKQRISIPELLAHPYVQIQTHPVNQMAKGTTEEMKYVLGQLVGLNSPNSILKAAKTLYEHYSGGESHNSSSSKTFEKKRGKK
Description: as §1

AuroraC = biological target: T3, AuroraC (Homo sapiens, UniProt Q9UQB9)
T3 construct: gene AURKC
T3 sequence (Q9UQB9 1-309): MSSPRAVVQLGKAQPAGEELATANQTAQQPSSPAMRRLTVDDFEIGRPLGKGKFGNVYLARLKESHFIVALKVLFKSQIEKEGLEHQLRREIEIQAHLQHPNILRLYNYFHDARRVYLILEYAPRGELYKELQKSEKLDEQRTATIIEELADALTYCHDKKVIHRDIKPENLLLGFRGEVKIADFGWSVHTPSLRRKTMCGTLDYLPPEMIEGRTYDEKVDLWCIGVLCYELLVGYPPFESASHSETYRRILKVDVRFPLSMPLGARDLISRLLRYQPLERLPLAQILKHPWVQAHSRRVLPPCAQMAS
Description: as §1

[1] = read-out: Residual activities [% of control] / 1(R) 10 µM
[2] = read-out: Residual activities [% of control] / 1(S) 10 µM

Chain of LIMK2 (P53671 whole entry): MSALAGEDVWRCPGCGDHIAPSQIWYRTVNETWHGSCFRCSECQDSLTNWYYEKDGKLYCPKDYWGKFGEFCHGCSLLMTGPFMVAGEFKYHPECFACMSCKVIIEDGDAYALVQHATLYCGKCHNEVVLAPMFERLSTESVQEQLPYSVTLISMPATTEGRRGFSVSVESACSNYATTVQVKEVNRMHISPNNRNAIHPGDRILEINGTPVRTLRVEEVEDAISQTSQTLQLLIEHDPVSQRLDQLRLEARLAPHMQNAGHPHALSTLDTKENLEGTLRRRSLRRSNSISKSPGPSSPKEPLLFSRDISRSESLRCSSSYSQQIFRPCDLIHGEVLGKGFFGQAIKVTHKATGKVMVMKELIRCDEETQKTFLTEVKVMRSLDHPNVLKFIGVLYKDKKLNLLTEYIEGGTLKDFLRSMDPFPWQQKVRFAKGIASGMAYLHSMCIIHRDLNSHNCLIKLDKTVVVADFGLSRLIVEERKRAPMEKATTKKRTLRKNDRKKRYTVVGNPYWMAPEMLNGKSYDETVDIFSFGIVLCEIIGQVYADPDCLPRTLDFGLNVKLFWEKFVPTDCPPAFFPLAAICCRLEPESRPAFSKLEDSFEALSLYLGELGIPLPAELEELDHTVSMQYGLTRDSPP
Chain of CDK1/CycB1 (P06493 whole entry): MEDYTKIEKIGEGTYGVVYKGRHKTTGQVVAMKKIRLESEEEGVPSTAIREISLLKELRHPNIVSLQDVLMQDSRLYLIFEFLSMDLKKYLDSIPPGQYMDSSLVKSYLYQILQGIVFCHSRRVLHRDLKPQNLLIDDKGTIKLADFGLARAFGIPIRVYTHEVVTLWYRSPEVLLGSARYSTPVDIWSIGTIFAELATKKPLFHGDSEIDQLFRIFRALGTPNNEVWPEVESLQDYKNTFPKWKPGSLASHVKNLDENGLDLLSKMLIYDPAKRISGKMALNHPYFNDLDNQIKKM
Chain of CDK1/CycB1 (P14635 whole entry partner): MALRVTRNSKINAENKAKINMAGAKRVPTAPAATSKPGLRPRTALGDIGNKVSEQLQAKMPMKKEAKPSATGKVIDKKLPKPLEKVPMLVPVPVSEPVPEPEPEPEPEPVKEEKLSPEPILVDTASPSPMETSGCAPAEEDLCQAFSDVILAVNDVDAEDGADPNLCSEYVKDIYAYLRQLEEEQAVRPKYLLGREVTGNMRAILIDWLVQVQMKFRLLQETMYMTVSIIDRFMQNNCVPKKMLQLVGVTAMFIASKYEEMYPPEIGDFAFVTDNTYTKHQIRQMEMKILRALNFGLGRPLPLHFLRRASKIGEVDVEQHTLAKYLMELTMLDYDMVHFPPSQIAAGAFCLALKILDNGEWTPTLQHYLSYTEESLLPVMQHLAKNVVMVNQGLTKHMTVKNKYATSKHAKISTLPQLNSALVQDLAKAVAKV

| Compound | remaining activity at 10 µM (CDK1/CycB1; [1]) [%] | remaining activity at 10 µM (NEK9; [1]) [%] | remaining activity at 10 µM (LIMK2; [1]) [%] | remaining activity at 10 µM (Mps1/TTK; [1]) [%] | remaining activity at 10 µM (AuroraC; [1]) [%] | remaining activity at 10 µM (CDK1/CycB1; [2]) [%] | remaining activity at 10 µM (NEK9; [2]) [%] | remaining activity at 10 µM (LIMK2; [2]) [%] | remaining activity at 10 µM (Mps1/TTK; [2]) [%] | remaining activity at 10 µM (AuroraC; [2]) [%] |
| --- | --- | --- | --- | --- | --- | --- | --- | --- | --- | --- |
| Nc1ccc2ccccc2c1-c1c(N)ccc2ccccc12 [1(R), (R)‐[1,1′‐binaphthalene]‐2,2′‐diamine] | 101 | 94 | 106 | 98 | 101 | – | – | – | – | – |
| Nc1ccc2ccccc2c1-c1c(N)ccc2ccccc12 [1(S), S‐BINAM] | – | – | – | – | – | 100 | 96 | 98 | 97 | 100 |
